Data: patent US20250230151A1, “COMPOUNDS FOR CANCERS DRIVEN BY BRAF MUTATION” (THE BOARD OF TRUSTEES OF THE UNIVERSITY OF ILLINOIS, priority 2021, published 2025)
Like-named read-outs stand apart in the source and are kept apart here. Blank lines part the entries; values can stand above or below the compound they belong to.

Experiments:
[1] = Blood-brain barrier penetrance, brain and serum levels after single IV injection; type: in vivo; settings: CD-1, mouse, 60 min after single 25 mg/kg IV injection, read-out: brain-to-serum ratio
Experimental: Blood-brain barrier penetrance P-gp in vivo assays. All experimental procedures were reviewed and approved by the University of Illinois Institutional Animal Care and Use Committee (Protocol number: 19191). CD-1 mice were purchased from Charles River and acclimated for 4-7 days before use. Mice were administered elacridar or its vehicle at 2.5 mg/kg via lateral tail vein injection. Thirty-minutes post injection, mice were then treated with compounds at 25 mg/kg intravenously now in the other tail vein. At each time point, mice were sacrificed and blood was collected by lacerating the right auricle with iris scissors. An 18-gauge angiocatheter was inserted through the left ventricle, and all residual circulatory volume was removed by perfusing 0.9% saline solution via an analog peristaltic pump. Brains were harvested from the cranial vault and flash frozen. Blood samples were centrifuged at 13,000 ref for 10 minutes and the supernatant serum was stored at −80° C. until analysis. Brain samples were homogenized in ice-cold methanol and centrifuged first at 2000 ref for three minutes and then 13,000 ref for ten minutes and supernatant and tissue debris were separated and stored at −80° C. The resultant supernatant and serum were analyzed by LC-MS/MS to determine compound concentrations. […] All compounds were administered at 5 mL/kg.

[2] = tested on: MAPK signaling (phospho-MEK1/2, phospho-ERK1/2) in A375 cells; assay: Immunoblotting of MEK1/2 and ERK1/2 phosphorylation, A375; type: cell-based, human; settings: for dose-response of phospho-ERK1/2 inhibition: A375, 0.01-10 μM, 1 and 24 h; for inhibition of MAPK signaling (MEK1/2 and ERK1/2 phosphorylation): A375, 1 h of treatment; for inhibition of ERK1/2 phosphorylation after 24 h: A375, highest concentrations (10 μM)
Experimental: (§1) Immunoblotting. Cells were lysed using RIPA buffer containing phosphatase (BioVision) and protease inhibitor cocktail (Calbiochem). Protein concentration was determined using the BCA assay (Pierce). Cell lysates containing […] of protein were loaded into each lane of 4% to 20% gradient gels (Bio-Rad) for SDS-PAGE. Proteins were transferred onto PDVF membrane for Western blot analysis. Blots were blocked with BSA for one hour followed by incubation with primary antibody overnight (dilution according to manufacturer's protocols), and then secondary antibody was incubated for one hour. Blots were then imaged with a ChemiDoc Touch (Bio-Rad) after incubation with SuperSignal West Pico Solution (ThermoFischer) following manufacturer's protocols. All antibodies were purchased from Cell Signaling Technology: p-ERK (9101S), ERK (4695S), p-MEK (9121S), MEK (8727S), vinculin (13901S) Rabbit IgG-HRP (7074), […] (5125).

[3] = tested on: V600EBRAF melanoma cell lines; assay: Cell viability, panel of V600E BRAF melanoma cell lines; type: cell-based; settings: range over the panel; read-out: IC50 values against a panel of V600EBRAF melanoma cell lines
Experimental: (§2) Cell Culture and reagents. All cell lines were grown in a 37° C., 5% CO2, humidified environment, in media containing 1% penicillin/streptomycin. Cell culture conditions are as follows: MDCK cells transfected with MDR1 (or ABCB1) were obtained from the Netherlands Cancer Institute (Amsterdam, The Netherlands) and maintained in DMEM with 10% fetal bovine serum (FBS, Gemini). Traditional cell lines A375, CHL-1, B16F10, and U118MG were grown in DMEM with 10% FBS, SK-MEL-28, U87 and T98G in EMEM with 10% FBS, AM-38 in EMEM with 20% HI-FBS (Gibco), HT29 in McCoy's 5A with 10% FBS, HCT116 in RPMI with 10% FBS. Compounds were dissolved in DMSO (1% final concentration, Sigma-Aldrich) for cell culture studies.
(§3) Cell viability assays. Cells were harvested, seeded in a 96-well plate and allowed to adhere overnight. Compound was added to each well in DMSO (1% final concentration). Cells were incubated for 72 hours before viability was assessed by the Alamar Blue Assay. Raptinal ([…]) was used as a dead control.

A375 cells = assay: 72-hour cell viability assay (Alamar Blue), A375; type: cell-based, human; settings: for IC50: 72-hour incubation, Alamar Blue, V600E BRAF
Experimental: as §2, §3

HCT116 cells = assay: 72-hour cell viability assay (Alamar Blue), HCT116; type: cell-based
Experimental: as §2, §3

U118MG cells = assay: 72-hour cell viability assay (Alamar Blue), U118MG; type: cell-based; settings: WT BRAF
Experimental: as §2, §3

CHL-1 cells = assay: 72-hour cell viability assay (Alamar Blue), CHL-1; type: cell-based
Experimental: as §2, §3

[4] = Pharmacokinetics in CD-1 mice, serum by LC-MS/MS; type: in vivo, mouse
[5] = tested on: MAPK signaling (phospho-MEK1/2, phospho-ERK1/2) in AM-38 cells; assay: Immunoblotting of MEK1/2 and ERK1/2 phosphorylation, AM-38; type: cell-based; settings: AM-38, 1 h of treatment
Experimental: as §1

cell lines with WTBRAF = assay: Cell viability, cell lines with WT BRAF; type: cell-based
Experimental: as §2, §3

[6] = tested on: A375 melanoma cells intracranially implanted; assay: A375 intracranial mouse model of melanoma metastasis; type: in vivo; settings: 50 mg/kg IP once a day, two 5-day cycles, 10 doses
Experimental: Number of mice per cohort n>3. […] (C) Evaluation of everafenib in an intracranial mouse model. 50,000 A375 melanoma cells were intracranially implanted into 7-week old female athymic nude mice. Five days after inoculation, mice were treated with the vehicle or 50 mg/kg of dabrafenib or everafenib intraperitoneal (IP) once a day for 5 days. After 2 days off, another five daily doses were administered, a total of 10 treatments in the model. Cells were tested to be free of pathogens prior to inoculation. […] Number of mice per cohort=6. Statistical significance was determined by a two-tailed log-rank (Mantel-Cox) test. **P<0.01 ***P<0.001 ****P<0.0001.
Such a model has been developed using intracranial implantation of the A375 melanoma cell line, and thus, this macro-metastatic model via injection of A375 cells to the mouse forebrain was used to assess everafenib and dabrafenib head-to-head. In the experiment, mice were intracranially implanted with A375 cells and then 5 days later were treated with 50 mg/kg of dabrafenib or everafenib (two cycles of once-per-day for 5 days via IP injection, a total of 10 doses).
In vivo efficacy model. […] Human melanoma A375 cells were intracranially implanted in 7-week-old female athymic nude mice (50,000 cells/mouse). Cells were tested to be free of pathogens prior to inoculation. […]

T98G cells = assay: 72-hour cell viability assay (Alamar Blue), T98G; type: cell-based; settings: WT BRAF
Experimental: as §2, §3

[7] = tested on: melanoma brain metastatic lesions; settings: combined with trametinib, clinical trials; cited from earlier work
P-gp = target: T1, P-gp (Homo sapiens, UniProt P08183); settings: background statement on dabrafenib; cited from earlier work
T1 construct: host or cells: MDCK (MDR1-MDCK)

[8] = Homo sapiens, HCT-116, WT BRAF, colon, read-out: HCT116 (WT) IC50
[9] = Homo sapiens, HCT-116, WT BRAF, read-out: HCT116 IC50
[10] = Homo sapiens, U-118-MG, glioma, read-out: U118MG (WT) IC50
[11] = Homo sapiens, U-118-MG, read-out: U118MG IC50
[12] = Homo sapiens, CHL-1, WT BRAF, melanoma, read-out: CHL-1 (WT) IC50
[13] = Homo sapiens, CHL-1, WT BRAF, read-out: CHL-1 IC50
[14] = 20 mg/kg IP, CD-1 mice, one-compartment model, listed as 261
[15] = 20 mg/kg IP, CD-1 mice, one-compartment model, listed as everafenib
[16] = CD-1, mouse, serum, intraperitoneal, 20 mg/kg IP, read-out: [Drug] serum concentration
[17] = CD-1, mouse, serum, 25 mg/kg IV, read-out: [Drug] serum concentration
[18] = Homo sapiens, T98G, glioma, read-out: T98G (WT) IC50
[19] = Homo sapiens, T98G, read-out: T98G IC50

T1 sequence (P08183 whole entry): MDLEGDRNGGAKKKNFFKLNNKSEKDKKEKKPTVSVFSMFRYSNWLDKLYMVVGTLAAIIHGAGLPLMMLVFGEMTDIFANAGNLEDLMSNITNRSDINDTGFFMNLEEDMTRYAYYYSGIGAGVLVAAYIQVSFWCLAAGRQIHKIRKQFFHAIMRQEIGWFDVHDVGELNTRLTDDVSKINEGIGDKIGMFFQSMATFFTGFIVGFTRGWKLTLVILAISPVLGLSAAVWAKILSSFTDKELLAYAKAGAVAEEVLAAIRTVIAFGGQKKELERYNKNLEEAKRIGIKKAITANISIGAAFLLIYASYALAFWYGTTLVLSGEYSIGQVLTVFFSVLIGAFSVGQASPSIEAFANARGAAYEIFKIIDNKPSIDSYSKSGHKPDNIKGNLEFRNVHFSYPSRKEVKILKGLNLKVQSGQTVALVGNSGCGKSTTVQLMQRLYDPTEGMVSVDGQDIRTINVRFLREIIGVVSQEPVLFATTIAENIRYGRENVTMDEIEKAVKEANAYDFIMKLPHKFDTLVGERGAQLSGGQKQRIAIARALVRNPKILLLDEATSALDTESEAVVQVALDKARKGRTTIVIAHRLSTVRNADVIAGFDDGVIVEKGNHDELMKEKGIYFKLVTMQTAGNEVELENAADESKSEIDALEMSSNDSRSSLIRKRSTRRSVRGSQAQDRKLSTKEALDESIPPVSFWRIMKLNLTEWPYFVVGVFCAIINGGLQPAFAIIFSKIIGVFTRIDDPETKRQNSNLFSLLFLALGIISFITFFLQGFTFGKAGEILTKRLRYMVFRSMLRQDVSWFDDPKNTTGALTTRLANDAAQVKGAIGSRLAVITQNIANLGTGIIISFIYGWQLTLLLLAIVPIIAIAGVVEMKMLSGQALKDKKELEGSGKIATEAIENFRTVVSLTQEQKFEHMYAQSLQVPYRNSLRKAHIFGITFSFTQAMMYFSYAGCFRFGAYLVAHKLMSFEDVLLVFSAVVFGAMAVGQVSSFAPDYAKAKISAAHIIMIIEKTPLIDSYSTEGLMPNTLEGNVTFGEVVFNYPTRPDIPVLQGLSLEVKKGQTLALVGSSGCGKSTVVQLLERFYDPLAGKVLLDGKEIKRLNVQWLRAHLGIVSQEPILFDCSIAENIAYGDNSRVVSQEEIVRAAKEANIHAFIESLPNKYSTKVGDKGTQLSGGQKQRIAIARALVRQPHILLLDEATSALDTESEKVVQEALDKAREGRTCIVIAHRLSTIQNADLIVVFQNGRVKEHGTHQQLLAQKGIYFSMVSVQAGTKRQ

Structure (SMILES): CCCS(=O)(=O)Nc1cc(Cl)cc(-c2nc(C(C)(C)C)sc2-c2ccnc(N)n2)c1F [6-261, N-(3-(5-(2-aminopyrimidin-4-yl)-2-(tert-butyl)thiazol-4-yl)-5-chloro-2-fluorophenyl)propane-1-sulfonamide]
Kp at 60 min [1]: 0.286
dose-response of phospho-ERK1/2 inhibition [2]: clear dose-dependent inhibition
inhibition of MAPK signaling (MEK1/2 and ERK1/2 phosphorylation) [2]: strongly inhibited
inhibition of ERK1/2 phosphorylation after 24 h [2]: sustained
IC50 [3]: 2 to 10 nM
IC50 (A375 cells; Homo sapiens, A-375, 72 h): 2.8 ± 0.53 nM
IC50 (HCT116 cells; [8]): > 1000 nM
IC50 (HCT116 cells; [9]): > 1000 nM
IC50 (U118MG cells; [10]): > 1000 nM
IC50 (U118MG cells; [11]): > 1000 nM
IC50 (CHL-1 cells; [12]): > 1000 nM
IC50 (CHL-1 cells; [13]): > 1000 nM
AUC [4, 14]: 503964.63 ng·min/mL
CL [4, 14]: 39.69 mL/min/kg
Cmax [4, 14]: 9364.7721 ng/mL
T1/2 [4, 14]: 37.3 min
Vss [4, 14]: 2.6929321 L/kg
CL [4, 15]: 39.7 mL/min/kg
Vss [4, 15]: 2.6929 L/kg
concentration at 0 min ([4]; CD-1, mouse, serum, intraperitoneal, 20 mg/kg IP, 0 min, read-out: [Drug] serum concentration): 0 nM
concentration at 15 min [4, 16]: 12.9 ± 0.557 µM
concentration at 30 min ([4]; CD-1, mouse, serum, intraperitoneal, 20 mg/kg IP, 30 min, read-out: [Drug] serum concentration): 9.46 ± 0.621 µM
concentration at 45 min ([4]; CD-1, mouse, serum, intraperitoneal, 20 mg/kg IP, 45 min, read-out: [Drug] serum concentration): 6.7 ± 0.122 µM
concentration at 60 min [4, 16]: 5.59 ± 0.167 µM
concentration at 120 min ([4]; CD-1, mouse, serum, intraperitoneal, 20 mg/kg IP, 120 min, read-out: [Drug] serum concentration): 2.55 ± 0.194 µM
concentration at 240 min ([4]; CD-1, mouse, serum, intraperitoneal, 20 mg/kg IP, 240 min, read-out: [Drug] serum concentration): 0.581 ± 0.118 µM
concentration at 480 min ([4]; CD-1, mouse, serum, intraperitoneal, 20 mg/kg IP, 480 min, read-out: [Drug] serum concentration): 0.014 ± 0.00207 µM
concentration at 960 min ([4]; CD-1, mouse, serum, intraperitoneal, 20 mg/kg IP, 960 min, read-out: [Drug] serum concentration): 0 nM
half-life ([4]; CD-1, mouse, serum, ip, 20 mg/kg, 20 mg/kg IP, CD-1 mice, one-compartment model): 37.3 min
AUC ([4]; CD-1, mouse, serum, ip, 20 mg/kg, 20 mg/kg IP, CD-1 mice, one-compartment model, read-out: AUC (converted)): 504000 ng·min/mL
Cmax ([4]; CD-1, mouse, serum, ip, 20 mg/kg, 20 mg/kg IP, CD-1 mice, one-compartment model, read-out: Cmax): 9360 ng/mL
concentration at 15 min [4, 17]: 16.4 ± 0.719 µM
concentration at 60 min [4, 17]: 6.56 ± 0.29 µM
inhibition of MAPK signaling (MEK1/2 and ERK1/2 phosphorylation) [5]: strongly inhibited
IC50 (cell lines with WTBRAF): > 1000 nM
activity against glioma cell-lines with WTBRAF (U118MG, T98G, U87) (cell lines with WTBRAF; cell culture): no activity
median survival [6]: 50.5 days
IC50 (T98G cells; [18]): > 1000 nM
IC50 (T98G cells; [19]): > 1000 nM

Kp at 60 min [1]: 0.0014 to 0.0069
IC50 (A375 cells; Homo sapiens, A-375, 72 h): 27.3 ± 3.01 nM
IC50 (HCT116 cells; [8]): 2100 ± 456 nM
IC50 (HCT116 cells; [9]): 2100 ± 456 nM
Structure (SMILES): CCCS(=O)(=O)Nc1cc(Cl)cc(-c2nc(C(C)(C)C)sc2-c2ccnc(NCCCCC(=O)O)n2)c1F [6-263, 5-((4-(2-(tert-butyl)-4-(5-chloro-2-fluoro-3-(propylsulfonamido)phenyl)thiazol-5-yl)pyrimidin-2-yl)amino)pentanoic acid]
dose-response of phospho-ERK1/2 inhibition [2]: clear dose-dependent inhibition
inhibition of MAPK signaling (MEK1/2 and ERK1/2 phosphorylation) [2]: strongly inhibited
inhibition of ERK1/2 phosphorylation after 24 h [2]: sustained
IC50 (U118MG cells; [10]): > 10000 nM
IC50 (U118MG cells; [11]): > 10000 nM
IC50 (CHL-1 cells; [12]): > 10000 nM
IC50 (CHL-1 cells; [13]): > 10000 nM
inhibition of MAPK signaling (MEK1/2 and ERK1/2 phosphorylation) [5]: strongly inhibited
IC50 (cell lines with WTBRAF): > 1000 nM
IC50 (T98G cells; [18]): > 10000 nM
IC50 (T98G cells; [19]): > 10000 nM

Structure (SMILES): CC(C)(C)c1nc(-c2cccc(NS(=O)(=O)c3c(F)cccc3F)c2F)c(-c2ccnc(N)n2)s1 [Dabrafenib, reference compound]
duration of intracranial response [7]: 6.5 months
inhibition of ERK1/2 phosphorylation after 24 h [2]: diminished inhibition
IC50 (A375 cells): 7.46 ± 1.1 nM
IC50 (A375 cells; listed as 6-74): 5.38 ± 0.38 nM
% Emax (A375 cells; A375, 72-hour incubation): 65%
IC50 (HCT116 cells; WT BRAF, read-out: HCT116 IC50): > 1000 nM
IC50 (U118MG cells; read-out: U118MG IC50): > 1000 nM
IC50 (CHL-1 cells; WT BRAF, read-out: CHL-1 IC50): > 1000 nM
efflux ratio (recognized by P-gp) (P-gp): 11.4-18.3
median survival [6]: 39 days
IC50 (T98G cells; read-out: T98G IC50): > 1000 nM
